According to US11331327B2, “Antibacterial use of halogenated salicylanilides” (UNION therapeutics A/S, priority 2014, dated 2022):
Values after ≈ are worked out from the molar mass of the structure shown. Read-outs that look alike come from different tables or passages of the source.

Test system: S. aureus clinical isolates and S. aureus ATCC 29213
Assay: MIC assay according to CLSI criteria, Example 2, S. aureus strains
Assay type: cell-based, Staphylococcus aureus
Conditions: Staphylococcus aureus, read-out: MIC
Procedure: Strains were conserved in Luria Bertani (LB) Broth (S. aureus) or Brain Heart Infusion (BHI) (S. pyogenes) supplemented with glycerol 15% (v/v) at −80° C., and reactivated by isolation on LB (S. aureus) or BHI (S. pyogenes) agar plates. Strains were cultivated in Mueller Hinton (MH) Broth-cation adjusted (S. aureus) or BHI (S. pyogenes). All strains were cultivated aerobically (microaerobically for S. pyogenes strains) at 37° C.
Bacterial cultures were stopped in their exponential growth phase and plates were inoculated with the approximate concentration of 5×10^5 cells per well. Plates were incubated at 37° C. for 18 hours (S. aureus) or 24 hours (S. pyogenes).

**Q.** Which results are given for `C/C(=C\C(=O)OCCCCCCCCC(=O)O)C[C@@H]1OC[C@H](C[C@@H]2O[C@H]2[C@@H](C)[C@H](C)O)[C@@H](O)[C@H]1O` [Mupirocin]?
**A.** MIC (ATCC 29213 / MRSA, strain MRSA 15): 0.25 µg/mL (≈ 0.499 µM); MIC (ATCC 29213 / MRSA, strain MRSA 16): > 16 µg/mL; MIC (ATCC 29213 / MRSA, strain MRSA 17): > 16 µg/mL; MIC (ATCC 29213 / MRSA, strain MRSA 18): 0.125 µg/mL (≈ 0.25 µM); MIC (ATCC 29213 / MRSA, strain MRSA 19): 0.25 µg/mL (≈ 0.499 µM); MIC (ATCC 29213 / MRSA, strain MRSA 20): 0.25 µg/mL (≈ 0.499 µM); MIC (ATCC 29213 / MRSA, strain MRSA 21): 0.125 µg/mL (≈ 0.25 µM); MIC (ATCC 29213 / MRSA, strain MRSA 22): 0.25 µg/mL (≈ 0.499 µM); MIC (ATCC 29213 / MRSA, strain MRSA 23): 0.25 µg/mL (≈ 0.499 µM); MIC (ATCC 29213 / MRSA, strain MRSA 24): 0.25 µg/mL (≈ 0.499 µM); MIC (ATCC 29213 / MRSA, strain MRSA 25): 0.25 µg/mL (≈ 0.499 µM); MIC (ATCC 29213 / MRSA, strain MRSA 26): 0.5 µg/mL (≈ 0.999 µM); MIC (ATCC 29213 / MRSA, strain MRSA 27): 0.25 µg/mL (≈ 0.499 µM); MIC (ATCC 29213 / MRSA, strain MRSA 27b): 0.25 µg/mL (≈ 0.499 µM); MIC (ATCC 29213 / MRSA, strain MRSA 28): 0.5 µg/mL (≈ 0.999 µM); MIC (ATCC 29213 / MRSA, strain MRSA 29): 0.25 µg/mL (≈ 0.499 µM); MIC (ATCC 29213 / MRSA, strain MRSA 30): 0.125 µg/mL (≈ 0.25 µM); MIC (ATCC 29213 / MRSA, strain MRSA 31): 0.25 µg/mL (≈ 0.499 µM); MIC (ATCC 29213 / MRSA, strain MRSA 32): 0.25 µg/mL (≈ 0.499 µM); MIC (ATCC 29213 / MRSA, strain MRSA 33): 0.25 µg/mL (≈ 0.499 µM); MIC (ATCC 29213 / MRSA, strain MRSA 34): 0.25 µg/mL (≈ 0.499 µM); MIC (ATCC 29213 / MRSA, strain MRSA 35): 0.5 µg/mL (≈ 0.999 µM); MIC (ATCC 29213 / MRSA, strain MRSA 36): 0.25 µg/mL (≈ 0.499 µM); MIC (ATCC 29213 / MRSA, strain MRSA 37): 0.25 µg/mL (≈ 0.499 µM); MIC (ATCC 29213 / MRSA, strain MRSA 38): 0.125 µg/mL (≈ 0.25 µM); MIC (ATCC 29213 / MRSA, strain MRSA 39): 0.25 µg/mL (≈ 0.499 µM); MIC (ATCC 29213 / MRSA, strain MRSA 40): 0.25 µg/mL (≈ 0.499 µM); MIC (ATCC 29213 / MRSA, strain MRSA 41): 0.125 µg/mL (≈ 0.25 µM); MIC (ATCC 29213 / MRSA, strain MRSA 42): 0.25 µg/mL (≈ 0.499 µM); MIC (ATCC 29213 / MRSA, strain MRSA 43): 0.25 µg/mL (≈ 0.499 µM); MIC (ATCC 29213 / MRSA, strain MRSA 44): 0.25 µg/mL (≈ 0.499 µM); MIC (ATCC 29213 / MRSA, strain MRSA 45): 0.13 µg/mL (≈ 0.26 µM); MIC (ATCC 29213 / MRSA, strain MRSA 46): 0.13 µg/mL (≈ 0.26 µM); MIC (ATCC 29213 / MRSA, strain MRSA 47): 0.25 µg/mL (≈ 0.499 µM); MIC (ATCC 29213 / MRSA, strain MRSA 48): 0.13 µg/mL (≈ 0.26 µM); MIC (ATCC 29213 / MRSA, strain MRSA 49): 0.25 µg/mL (≈ 0.499 µM); MIC (ATCC 29213 / MRSA, strain MRSA 50): 0.25 µg/mL (≈ 0.499 µM); MIC (ATCC 29213 / MRSA, strain MRSA 51): 0.25 µg/mL (≈ 0.499 µM); MIC (ATCC 29213 / MRSA, strain MRSA 52): 0.25 µg/mL (≈ 0.499 µM); MIC (ATCC 29213 / MRSA, strain MRSA 53): 0.25 µg/mL (≈ 0.499 µM); MIC (ATCC 29213 / MRSA, strain MRSA 54): 0.25 µg/mL (≈ 0.499 µM); MIC (ATCC 29213 / MRSA, strain MRSA 55): 0.25 µg/mL (≈ 0.499 µM); MIC (ATCC 29213 / MRSA, strain MRSA 56): 0.25 µg/mL (≈ 0.499 µM); MIC (ATCC 29213 / MRSA, strain MRSA 57): 0.125 µg/mL (≈ 0.25 µM); MIC (ATCC 29213 / MRSA, strain MRSA 58): 0.125 µg/mL (≈ 0.25 µM); MIC (ATCC 29213 / MRSA, strain MRSA 59): 0.125 µg/mL (≈ 0.25 µM); MIC (ATCC 29213 / MRSA, strain MRSA 60): 0.25 µg/mL (≈ 0.499 µM); MIC (ATCC 29213 / MRSA, strain MRSA 61): 0.25 µg/mL (≈ 0.499 µM); MIC (ATCC 29213 / MRSA, strain MRSA 62): 0.25 µg/mL (≈ 0.499 µM); MIC (ATCC 29213 / MRSA, strain MRSA 63): 0.125 µg/mL (≈ 0.25 µM); MIC (ATCC 29213 / MRSA, strain MRSA 64): 0.25 µg/mL (≈ 0.499 µM); MIC (ATCC 29213 / MRSA, strain MRSA 65): 0.25 µg/mL (≈ 0.499 µM); MIC (ATCC 29213 / MRSA, strain MRSA 66): 0.25 µg/mL (≈ 0.499 µM); MIC (ATCC 29213 / MRSA, strain MRSA 67): 0.125 µg/mL (≈ 0.25 µM); MIC (ATCC 29213 / MRSA, strain MRSA 68): 0.25 µg/mL (≈ 0.499 µM); MIC (ATCC 29213 / MRSA, strain MRSA 69): 0.125 µg/mL (≈ 0.25 µM); MIC (ATCC 29213 / MRSA, strain MRSA 70): 0.25 µg/mL (≈ 0.499 µM); MIC (ATCC 29213 / MRSA, strain MRSA 71): 0.125 µg/mL (≈ 0.25 µM); MIC (ATCC 29213 / MRSA, strain MRSA 72): 0.25 µg/mL (≈ 0.499 µM); MIC (ATCC 29213 / MRSA, strain MRSA 73): 0.25 µg/mL (≈ 0.499 µM); MIC (ATCC 29213 / MRSA, strain MRSA 74): 0.25 µg/mL (≈ 0.499 µM); MIC (ATCC 29213 / MRSA, strain MRSA 75): 0.5 µg/mL (≈ 0.999 µM); MIC (ATCC 29213 / MRSA, strain MRSA 76): 0.25 µg/mL (≈ 0.499 µM); MIC (ATCC 29213 / MRSA, strain MRSA 77): 0.25 µg/mL (≈ 0.499 µM); MIC (ATCC 29213 / MRSA, strain MRSA 78): 0.25 µg/mL (≈ 0.499 µM); MIC (ATCC 29213 / MRSA, strain MRSA 79): 0.25 µg/mL (≈ 0.499 µM); MIC (ATCC 29213 / MRSA, strain MRSA 80): 0.25 µg/mL (≈ 0.499 µM); MIC (ATCC 29213 / MRSA, strain MRSA 81): 0.25 µg/mL (≈ 0.499 µM); MIC (ATCC 29213 / MRSA, strain MRSA 82): 0.25 µg/mL (≈ 0.499 µM); MIC (ATCC 29213 / MRSA, strain MRSA 83): 0.25 µg/mL (≈ 0.499 µM); MIC (ATCC 29213 / MRSA, strain MRSA 84): 0.25 µg/mL (≈ 0.499 µM); MIC (ATCC 29213 / MRSA, strain MRSA 85): 0.25 µg/mL (≈ 0.499 µM); MIC (ATCC 29213 / MRSA, strain MRSA 86): 0.25 µg/mL (≈ 0.499 µM); MIC (ATCC 29213 / MRSA, strain MRSA 87): 0.25 µg/mL (≈ 0.499 µM); MIC (ATCC 29213 / MRSA, strain MRSA 88): 0.25 µg/mL (≈ 0.499 µM); MIC (ATCC 29213 / MRSA, strain MRSA 89): 0.25 µg/mL (≈ 0.499 µM); MIC (ATCC 29213 / MRSA, strain MRSA 90): 0.25 µg/mL (≈ 0.499 µM); MIC (ATCC 29213 / MRSA, strain MRSA 91): 0.25 µg/mL (≈ 0.499 µM); MIC (ATCC 29213 / MRSA, strain MRSA 92): 0.25 µg/mL (≈ 0.499 µM); MIC (ATCC 29213 / MRSA, strain MRSA 93): 0.25 µg/mL (≈ 0.499 µM); MIC (ATCC 29213 / MRSA, strain MRSA 94): 0.25 µg/mL (≈ 0.499 µM); MIC (ATCC 29213 / MRSA, strain MRSA 95): 0.25 µg/mL (≈ 0.499 µM); MIC (ATCC 29213 / MRSA, strain MRSA 96): 0.125 µg/mL (≈ 0.25 µM); MIC (ATCC 29213 / MRSA, strain MRSA 97): 0.25 µg/mL (≈ 0.499 µM); MIC (ATCC 29213 / MRSA, strain MRSA 98): 0.5 µg/mL (≈ 0.999 µM); MIC (ATCC 29213 / MRSA, strain MRSA 99): 0.5 µg/mL (≈ 0.999 µM); MIC (ATCC 29213 / MRSA, strain MRSA 100): 0.5 µg/mL (≈ 0.999 µM); MIC (ATCC 29213 / MRSA, strain MRSA 101): 0.25 µg/mL (≈ 0.499 µM); MIC (ATCC 29213 / MRSA, strain MRSA 102): 0.25 µg/mL (≈ 0.499 µM); MIC (ATCC 29213 / MRSA, strain MRSA 103): 0.25 µg/mL (≈ 0.499 µM); MIC (ATCC 29213 / MRSA, strain MRSA 104): 0.25 µg/mL (≈ 0.499 µM); MIC (ATCC 29213 / MRSA, strain MRSA 105): 0.25 µg/mL (≈ 0.499 µM); MIC (ATCC 29213 / MRSA, strain MRSA 106): 0.25 µg/mL (≈ 0.499 µM); MIC (ATCC 29213 / MRSA, strain MRSA 107): 0.25 µg/mL (≈ 0.499 µM); MIC (ATCC 29213 / MRSA, strain MRSA 108): 0.25 µg/mL (≈ 0.499 µM); MIC (ATCC 29213 / MRSA, strain MRSA 109): 0.25 µg/mL (≈ 0.499 µM); MIC (ATCC 29213 / MRSA, strain MRSA 110): 0.125 µg/mL (≈ 0.25 µM); MIC (ATCC 29213 / MRSA, strain MRSA 111): 0.25 µg/mL (≈ 0.499 µM); MIC (ATCC 29213 / MRSA, strain MRSA 112): 0.25 µg/mL (≈ 0.499 µM); MIC (ATCC 29213 / MRSA, strain MRSA 113): 0.25 µg/mL (≈ 0.499 µM); MIC (ATCC 29213 / MSSA, strain MSSA 01): 0.125 µg/mL (≈ 0.25 µM); MIC (ATCC 29213 / MSSA, strain MSSA 02): 0.125 µg/mL (≈ 0.25 µM); MIC (ATCC 29213 / NEWMAN, strain Newman): 0.25 µg/mL (≈ 0.499 µM)
